In patent publication US20260373226A1, “METHODS AND COMPOSITIONS FOR THE TREATMENT OF NEURODEGENERATIVE DISEASE” (Stealth BioTherapeutics Inc., priority 2022, published 2026):

Assay: Steady state PK in plasma, CSF, brain cortex after 10 daily s.c. doses in nonhuman primates
Assay type: in vivo, cynomolgus monkey
Protocol: Pharmacokinetic profile of SBT-272 in nonhuman primate plasma, CSF, and brain. The objective of this study was to determine the pharmacokinetic profile of SBT-272 in CSF and plasma when delivered by subcutaneous (SC) injection for 10 days to cynomolgus monkeys. SBT-272 solution was administered daily by SC injection for 10 days. The following parameters and endpoints were evaluated in this study: mortality, clinical observations, body weights, pharmacokinetic samples (CSF and plasma), and selected tissue collection. There was no mortality during the study. […] Additional details regarding the experimental protocol are provided below.
Test System. Details Regarding the Test System are Provided Below: • Species: Nonhuman primate • Strain/Breed: Cynomolgus monkey • Animal Condition: Non-naïve • Animal Procurement Method: In-house colony • Animal Supplier: Charles River Laboratories • Animal Supplier Location: 531 Boul des Prairies, Laval, QC H7V 1B7, Canada • Animal Origin: Asia • Number of Males: 3 • Age at the Initiation of Dosing: 18 to 60 months • Weight at the Initiation of Dosing: 1.4 to 5.0 kg
Study design. The study design is described in Table 9.
• Route of Administration: Subcutaneous injection into the scapular and mid-dorsal areas • Treatment Frequency: Daily • Treatment Duration: 10 days • Method: The first day of dosing is designated as Day 1. Dose formulations are allowed to warm up at ambient temperature for at least 30 minutes prior to dosing, as appropriate. The animals are temporarily restrained for dose administration and are not be sedated. The volume for each dose is administered over 1 (preferred) or 2 (as necessary) separate injections within the designated area. Injection sites are rotated daily (see FIG. 4B). If a designated subcutaneous test site is not available for a given animal on any day, then the next available test site in the rotation should be used for dosing. The injection area is marked as frequently as required to allow appropriate visualization of administration sites. Hair may be clipped or shaved if required to improve visualization of the injection sites. On the last injection occasion for each quadrant, the last site of injection is circled, and the circled site is collected at necropsy.
CSF Sample Processing. CSF samples re processed and stored within 1 hour of collection. Following each CSF collection, the sample is visually inspected, and the appearance is recorded. Samples are maintained on wet ice prior to and after centrifugation. Samples are centrifuged for 5 minutes in a refrigerated centrifuge (set to maintain 4 °C) at 2000 g RCF within 1 hour of collection. The resultant supernatant is collected within 30 minutes (as quickly as possible) of centrifugation and will be visually inspected; the appearance of the supernatant and any traces of blood in the pellet re recorded. Precipitate (if any) is discarded. CSF samples are separated into 2 approximately 100 μL equal aliquots into uniquely labelled low protein binding polypropylene tubes each containing 10 μL of 5% (v/v) phosphoric acid aqueous solution. Any remaining CSF will be transferred into a 3rd low protein binding polypropylene tube containing a volume of 5% (v/v) phosphoric acid solution adjusted to result in a 1:10 ratio of acid solution: CSF. All samples are placed on dry ice and transferred to a freezer set to maintain −70 °C.
Plasma Sample Processing. […]

With Cc1cc(O)cc(C)c1C[C@H](NC(=O)[C@H](N)CCCNC(=N)N)C(=O)N[C@@H](CCCCN)c1nc(Cc2ccccc2)no1 [SBT-272, (R)-2-amino-N—((S)-1-(((S)-5-amino-1-(3-benzyl-1,2,4-oxadiazol-5-yl)pentyl)amino)-3-(4-hydroxy-2,6-dimethylphenyl)-1-oxopropan-2-yl)-5-guanidinopentanamide] the “plasma:CSF ratio” value (cynomolgus monkey, 5 mg/kg s.c., 10 daily doses) was 6.40, the “brain:CSF ratio” value (cynomolgus monkey, brain (cortex), 5 mg/kg s.c., 10 daily doses) was 328 and the Kp (in vivo, sc, cynomolgus monkey, brain (cortex), 5 mg/kg s.c., 10 daily doses, read-out: brain:plasma ratio) was 51. The “brain drug concentration versus predictions based on rodent studies” value (nonhuman primate, FIGS. 5A-5B) was “met predictions based on rodent studies” and the “correlation between species in steady state brain concentration at trough” value (rat and nonhuman primate, repeated SC dosing) was “excellent correlation between species in steady state brain concentration at trough”.
